Reference: paper PMC3237458, “PEGylation Potentiates the Effectiveness of an Antagonistic Peptide That Targets the EphB4 Receptor with Nanomolar Affinity” (PLoS ONE, 2011)
Square brackets hold non-standard residues; d marks the D form. Peptide text beside a SMILES is read from it. * marks the point of attachment. Biotin = O=C1N[C@H]2[C@H](CS[C@H]2CCCCC(=O)*)N1; Ahx = NCCCCCC(=O)O

Key:
EphB4-ephrin-B2 binding [1] = conditions: ELISA assays; read-out: IC50 for inhibition of EphB4-ephrin-B2 binding; cited from earlier work
Text: An explanation for the discrepancy in the potency of the peptide in biochemical and cell culture assays could be that TNYL-RAW is susceptible to degradation by proteases present in cell culture medium. For example, trypsin-like proteases are l ...

mouse EphB4 = conditions: mouse EphB4, surface plasmon resonance; cited from earlier work
Text: (§1) Inhibiting EphB4-ephrin-B2 interaction could therefore be useful for diverse medical applications. […] A 15 amino acid-long EphB4 antagonistic peptide, TNYL-RAW (TNYLFSPNGPIARAW), could represent an alternative to the large EphB4 e ...

Eph receptors = conditions: cited from earlier work
Text: as §1

human EphB4 = conditions: human EphB4, isothermal titration calorimetry; cited from earlier work
Text: as §1

EphB4-ephrin-B2 binding [2] = target: T1, EphB4-ephrin-B2 binding (Mus musculus, UniProt P54761); assay: ELISA inhibition of EphB4-ephrin-B2 binding (ephrin-B2 AP on immobilized EphB4 Fc); conditions: incubated in conditioned medium for 4 hours before ELISA; Figure 1C
T1 construct: EphB4 Fc, a soluble dimeric form of the EphB4 extracellular domain fused to Fc; purchased R&D Systems, Minneapolis, MN (EphB4 Fc); ephrin-B2 AP made in house from a GeneHunter plasmid; host or cells: HEK 293T cells for ephrin-B2 AP
T1 sequence (P54761 16-539 limits assumed): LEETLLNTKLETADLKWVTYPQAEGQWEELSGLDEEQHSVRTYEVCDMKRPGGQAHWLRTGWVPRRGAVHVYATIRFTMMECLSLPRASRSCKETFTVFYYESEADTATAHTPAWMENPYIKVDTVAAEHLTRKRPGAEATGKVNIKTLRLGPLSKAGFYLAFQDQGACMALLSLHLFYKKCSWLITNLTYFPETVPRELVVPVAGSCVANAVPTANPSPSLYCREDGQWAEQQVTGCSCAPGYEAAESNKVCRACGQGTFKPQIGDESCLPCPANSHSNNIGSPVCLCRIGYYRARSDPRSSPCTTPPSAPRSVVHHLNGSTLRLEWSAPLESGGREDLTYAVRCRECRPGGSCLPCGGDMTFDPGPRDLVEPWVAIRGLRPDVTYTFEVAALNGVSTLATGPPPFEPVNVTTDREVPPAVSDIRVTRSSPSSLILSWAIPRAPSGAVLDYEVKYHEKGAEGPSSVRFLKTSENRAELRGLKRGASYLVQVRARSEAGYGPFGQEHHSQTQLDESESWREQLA
Experimental: Alkaline phosphatase (AP) fusion proteins were produced by transiently transfecting the mouse EphB4 AP [70] or mouse ephrin-B2 AP plasmids (GeneHunter, Nashville, TN) in HEK 293T cells and growing the cells in serum-free Opti-MEM medium for 2–4 days. If necessary, the culture medium containing the secreted AP protein was concentrated by centrifugation in Amicon 30,000 MW cutoff filters (Millipore, Inc., Temecula, CA). EphB4 and ephrin-B2 AP concentrations were calculated from alkaline phosphatase activity.
EphB4 Fc (1 µg/ml in TBST) was immobilized in protein A-coated plates and incubated for 3 hours with 0.02 nM ephrin-B2 AP in culture medium diluted in TBST in the presence of different concentrations of TNYL-RAW, TNYL-RAW-Fc, TNYL-RAW-streptavidin and PEG-TNYL-RAW. Bound ephrin-B2 AP was quantified by adding pNPP as the substrate and measuring the absorbance at 405 nm. Alkaline phosphatase activity from wells where human Fc (R&D Systems, Minneapolis, MN) was added instead of EphB4 Fc was subtracted as the background. The binding curves were analyzed using non linear regression and the program Prism (GraphPad Software Inc.).

Structure (SMILES): CC[C@H](C)[C@H](NC(=O)[C@@H]1CCCN1C(=O)CNC(=O)[C@H](CC(N)=O)NC(=O)[C@@H]1CCCN1C(=O)[C@H](CO)NC(=O)[C@H](Cc1ccccc1)NC(=O)[C@H](CC(C)C)NC(=O)[C@H](Cc1ccc(O)cc1)NC(=O)[C@H](CC(N)=O)NC(=O)[C@@H](N)[C@@H](C)O)C(=O)N[C@@H](C)C(=O)N[C@@H](CCCNC(=N)N)C(=O)N[C@@H](C)C(=O)N[C@@H](Cc1c[nH]c2ccccc12)C(=O)NCCCCCC(=O)N[C@@H](CCCCNC(=O)CCCC[C@@H]1SC[C@@H]2NC(=O)N[C@@H]21)C(N)=O [TNYL-RAW] (H-TNYLFSPNGPIARAW[Ahx]K(Biotin)-NH2; N-terminus and C-terminus assumed)
- IC50 (EphB4-ephrin-B2 binding [1]): ~15 nM
- Kd (mouse EphB4): 3 nM
- Selectivity of binding among Eph receptors (Eph receptors): selectively binds to EphB4 but not any other Eph receptor
- Kd (human EphB4): 70 nM
- Ability to inhibit ephrin-B2-EphB4 interaction after incubation in PC3 cell conditioned medium (EphB4-ephrin-B2 binding [2]): abolished the ability of TNYL-RAW to inhibit ephrin-B2-EphB4 interaction
